# Measured values: patent publication US10167262B2, “Herbicidal substituted 3-arylpyrazoles” (FMC CORPORATION, priority 2014, dated 2019)
# Read-outs that look alike come from different tables or passages of the source.
# Experiments:
# Assay type in all cases: in vivo
# [1] = system: morningglory (Ipomoea coccinea); assay: Test C pre-/postemergence greenhouse test, plant response rating 0-100; details: Ipomoea; for pest or weed control at 62 g/ha: 62 g ai/ha; for pest or weed control at 125 g/ha: 125 g ai/ha; for pest or weed control at 250 g/ha: 250 g ai/ha; for pest or weed control at 500 g/ha: 500 g ai/ha
# Method in brief: (§1)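 Visual rating vs controls after 13–15 d greenhouse; 0 = no effect, 100 = complete control. Pre: seeds in loam/sand, treated at planting. Post: seedlings 2–18 cm (1–4 leaf) in peat-based mix. Compounds in surfactant-containing non-phytotoxic solvent.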
# [2] = system: oilseed rape (Brassica napus); assay: as above
# Method in brief: as §1
# [3] = system: galium (catchweed bedstraw, Galium aparine); assay: as above; details: Galium; for pest or weed control at 62 g/ha: 62 g ai/ha; for pest or weed control at 125 g/ha: 125 g ai/ha; for pest or weed control at 250 g/ha: 250 g ai/ha; for pest or weed control at 500 g/ha: 500 g ai/ha
# Method in brief: as §1
# [4] = system: chickweed (common chickweed, Stellaria media); assay: Test C postemergence greenhouse test, plant response rating 0-100; details: Stellaria media, post-emergence
# Method in brief: (§2)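 Potted in peat/vermiculite mix; postemergence application at 1–4 leaves (2–18 cm); greenhouse 13–15 d; visual score 0–100 relative to untreated plants; dash = no test result.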
# wild oat (Avena fatua) = assay: as above; details: Avena fatua, post-emergence
# Method in brief: as §2
# kochia (Kochia scoparia) = assay: as above; details: Bassia scoparia, post-emergence
# Method in brief: as §2
# corn (Zea mays) = assay: Test A pre-/postemergence greenhouse herbicide test, visual injury rating 0-100; details: for plant injury at 500 g/ha: 500 g ai/ha
# Method in brief: (§3)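 Directed soil spray (pre) and foliar spray (post, 1–2 leaf) of solvent/surfactant-formulated compound; greenhouse ~10 d; visual injury 0–100 vs untreated controls.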
# [5] = system: large (Lg) crabgrass (Digitaria sanguinalis); assay: as above; details: for pest or weed control at 500 g/ha: 500 g ai/ha
# Method in brief: as §3
# [6] = system: barnyardgrass (Echinochloa crus-galli); assay: as above; details: for pest or weed control at 500 g/ha: 500 g ai/ha
# Method in brief: as §3
# [7] = system: velvetleaf (Abutilon theophrasti); assay: as above; details: for pest or weed control at 500 g/ha: 500 g ai/ha
# Method in brief: as §3
# [8] = system: giant foxtail (Setaria faberii); assay: as above; details: for pest or weed control at 500 g/ha: 500 g ai/ha
# Method in brief: as §3
# [9] = system: morningglory (Ipomoea spp.); assay: as above; details: for pest or weed control at 500 g/ha: 500 g ai/ha
# Method in brief: as §3
# [10] = system: pigweed (Amaranthus retroflexus); assay: as above; details: for pest or weed control at 500 g/ha: 500 g ai/ha
# Method in brief: as §3
# [11] = system: wheat (Triticum aestivum); assay: as above; details: for plant injury at 500 g/ha: 500 g ai/ha
# Method in brief: as §3
# [12] = post-emergence, Postemergence, read-out: Plant response rating (0 to 100), Morningglory
# [13] = post-emergence, Postemergence, scale 0 to 100
# [14] = pre-emergence, Preemergence, read-out: Plant response rating, Morningglory
# [15] = post-emergence, Postemergence, read-out: Plant response rating (0 to 100), Galium
# [16] = pre-emergence, Preemergence, read-out: Plant response rating, Galium
compound,measurement,setting,value
"CCOC(OCC)(c1ccccc1)c1c[nH]nc1-c1cc(Cl)cc(Cl)c1 [Compound 14, 3-(3,5-dichlorophenyl)-4-(diethoxyphenylmethyl)-1H-pyrazole]",pest or weed control at 62 g/ha,[1]; [12],0%
same,pest or weed control at 125 g/ha,[1]; [12],0%
same,pest or weed control at 250 g/ha,[1]; [13],0%
same,pest or weed control at 500 g/ha,[1]; [13],5%
same,pest or weed control at 62 g/ha,[1]; [14],0%
same,pest or weed control at 125 g/ha,[1]; [14],0%
same,pest or weed control at 250 g/ha,"[1]; pre-emergence, Preemergence",0%
same,pest or weed control at 500 g/ha,"[1]; pre-emergence, Preemergence",0%
same,"Plant response rating (0 to 100), Oilseed Rape","[2]; Postemergence, 62 g ai/ha",80
same,"Plant response rating (0 to 100), Oilseed Rape","[2]; Postemergence, 125 g ai/ha",70
same,"Plant response rating, Oilseed Rape","[2]; Postemergence, 250 g ai/ha, scale 0 to 100",95
same,"Plant response rating, Oilseed Rape","[2]; Postemergence, 500 g ai/ha, scale 0 to 100",90
same,"Plant response rating, Oilseed Rape","[2]; Preemergence, 62 g ai/ha",50
same,"Plant response rating, Oilseed Rape","[2]; Preemergence, 125 g ai/ha",90
same,"Plant response rating, Oilseed Rape","[2]; Preemergence, 250 g ai/ha",85
same,"Plant response rating, Oilseed Rape","[2]; Preemergence, 500 g ai/ha",85
same,pest or weed control at 62 g/ha,[3]; [15],0%
same,pest or weed control at 125 g/ha,[3]; [15],30%
same,pest or weed control at 250 g/ha,[3]; [13],50%
same,pest or weed control at 500 g/ha,[3]; [13],45%
same,pest or weed control at 62 g/ha,[3]; [16],0%
same,pest or weed control at 125 g/ha,[3]; [16],60%
same,pest or weed control at 250 g/ha,"[3]; pre-emergence, Preemergence",80%
same,pest or weed control at 500 g/ha,"[3]; pre-emergence, Preemergence",0%
same,pest or weed control at 62 g/ha,[4]; 62 g ai/ha,90%
same,pest or weed control at 125 g/ha,[4]; 125 g ai/ha,100%
same,pest or weed control at 250 g/ha,"[4]; 250 g ai/ha, scale 0 to 100",100%
same,pest or weed control at 500 g/ha,"[4]; 500 g ai/ha, scale 0 to 100",95%
same,pest or weed control at 62 g/ha,wild oat (Avena fatua); 62 g ai/ha,0%
same,pest or weed control at 125 g/ha,wild oat (Avena fatua); 125 g ai/ha,0%
same,pest or weed control at 250 g/ha,"wild oat (Avena fatua); 250 g ai/ha, scale 0 to 100",0%
same,pest or weed control at 500 g/ha,"wild oat (Avena fatua); 500 g ai/ha, scale 0 to 100",5%
same,pest or weed control at 62 g/ha,kochia (Kochia scoparia); 62 g ai/ha,85%
same,pest or weed control at 125 g/ha,kochia (Kochia scoparia); 125 g ai/ha,90%
same,pest or weed control at 250 g/ha,"kochia (Kochia scoparia); 250 g ai/ha, scale 0 to 100",90%
same,pest or weed control at 500 g/ha,"kochia (Kochia scoparia); 500 g ai/ha, scale 0 to 100",90%
same,"Corn plant response rating (0 = no effect, 100 = complete control)","corn (Zea mays); Preemergence, 125 g ai/ha",0
same,plant injury at 125 g/ha,"corn (Zea mays); Zea mays, post-emergence, 240 h, Postemergence, 125 g ai/ha, read-out: Plant response rating (0 to 100 scale), Corn",0%
same,plant injury at 500 g/ha,"corn (Zea mays); Zea mays, post-emergence, 240 h, Postemergence, read-out: Plant response rating (0 to 100 scale), Corn",0%
same,plant injury at 500 g/ha,"corn (Zea mays); Zea mays, pre-emergence, 240 h, Preemergence, read-out: Plant response rating (0 to 100 scale), Corn",0%
same,pest or weed control at 125 g/ha,"[5]; Digitaria sanguinalis, post-emergence, 240 h, Postemergence, 125 g ai/ha, read-out: Plant response rating (0 to 100 scale), Crabgrass, Large",0%
same,pest or weed control at 500 g/ha,"[5]; Digitaria sanguinalis, post-emergence, 240 h, Postemergence, read-out: Plant response rating (0 to 100 scale), Crabgrass, Large",0%
same,pest or weed control at 500 g/ha,"[5]; Digitaria sanguinalis, pre-emergence, 240 h, Preemergence, read-out: Plant response rating (0 to 100 scale), Crabgrass, Large",0%
same,"Crabgrass, Large plant response rating (0 = no effect, 100 = complete control)","[5]; Preemergence, 125 g ai/ha",0
same,pest or weed control at 125 g/ha,"[6]; Echinochloa crus-galli, post-emergence, 240 h, Postemergence, 125 g ai/ha, read-out: Plant response rating (0 to 100 scale), Barnyardgrass",0%
same,pest or weed control at 500 g/ha,"[6]; Echinochloa crus-galli, post-emergence, 240 h, Postemergence, read-out: Plant response rating (0 to 100 scale), Barnyardgrass",0%
same,pest or weed control at 500 g/ha,"[6]; Echinochloa crus-galli, pre-emergence, 240 h, Preemergence, read-out: Plant response rating (0 to 100 scale), Barnyardgrass",0%
same,"Barnyardgrass plant response rating (0 = no effect, 100 = complete control)","[6]; Preemergence, 125 g ai/ha",0
same,pest or weed control at 125 g/ha,"[7]; Abutilon theophrasti, post-emergence, 240 h, Postemergence, 125 g ai/ha, read-out: Plant response rating (0 to 100 scale), Velvetleaf",80%
same,pest or weed control at 500 g/ha,"[7]; Abutilon theophrasti, post-emergence, 240 h, Postemergence, read-out: Plant response rating (0 to 100 scale), Velvetleaf",90%
same,pest or weed control at 500 g/ha,"[7]; Abutilon theophrasti, pre-emergence, 240 h, Preemergence, read-out: Plant response rating (0 to 100 scale), Velvetleaf",100%
same,"Velvetleaf plant response rating (0 = no effect, 100 = complete control)","[7]; Preemergence, 125 g ai/ha",50
same,"Foxtail, Giant plant response rating (0 = no effect, 100 = complete control)","[8]; Preemergence, 125 g ai/ha",0
same,pest or weed control at 125 g/ha,"[8]; Setaria faberi, post-emergence, 240 h, Postemergence, 125 g ai/ha, read-out: Plant response rating (0 to 100 scale), Foxtail, Giant",0%
same,pest or weed control at 500 g/ha,"[8]; Setaria faberi, post-emergence, 240 h, Postemergence, read-out: Plant response rating (0 to 100 scale), Foxtail, Giant",0%
same,pest or weed control at 500 g/ha,"[8]; Setaria faberi, pre-emergence, 240 h, Preemergence, read-out: Plant response rating (0 to 100 scale), Foxtail, Giant",0%
same,pest or weed control at 125 g/ha,"[9]; Ipomoea, post-emergence, 240 h, Postemergence, 125 g ai/ha, read-out: Plant response rating (0 to 100 scale), Morningglory",0%
same,pest or weed control at 500 g/ha,"[9]; Ipomoea, post-emergence, 240 h, Postemergence, read-out: Plant response rating (0 to 100 scale), Morningglory",0%
same,pest or weed control at 500 g/ha,"[9]; Ipomoea, pre-emergence, 240 h, Preemergence, read-out: Plant response rating (0 to 100 scale), Morningglory",0%
same,"Morningglory plant response rating (0 = no effect, 100 = complete control)","[9]; Preemergence, 125 g ai/ha",0
same,pest or weed control at 125 g/ha,"[10]; Amaranthus retroflexus, post-emergence, 240 h, Postemergence, 125 g ai/ha, read-out: Plant response rating (0 to 100 scale), Pigweed",80%
same,pest or weed control at 500 g/ha,"[10]; Amaranthus retroflexus, post-emergence, 240 h, Postemergence, read-out: Plant response rating (0 to 100 scale), Pigweed",90%
same,pest or weed control at 500 g/ha,"[10]; Amaranthus retroflexus, pre-emergence, 240 h, Preemergence, read-out: Plant response rating (0 to 100 scale), Pigweed",100%
same,"Pigweed plant response rating (0 = no effect, 100 = complete control)","[10]; Preemergence, 125 g ai/ha",70
same,"Wheat plant response rating (0 = no effect, 100 = complete control)","[11]; Preemergence, 125 g ai/ha",0
same,plant injury at 125 g/ha,"[11]; Triticum aestivum, post-emergence, 240 h, Postemergence, 125 g ai/ha, read-out: Plant response rating (0 to 100 scale), Wheat",0%
same,plant injury at 500 g/ha,"[11]; Triticum aestivum, post-emergence, 240 h, Postemergence, read-out: Plant response rating (0 to 100 scale), Wheat",0%
same,plant injury at 500 g/ha,"[11]; Triticum aestivum, pre-emergence, 240 h, Preemergence, read-out: Plant response rating (0 to 100 scale), Wheat",0%
